Activity calls are given as the source filed them. No rule for the calls is given here.
assay: LAP4-GFP modulation potency in yeast, dose response, cell-based, MLPCN hits, flow cytometry (AID 2745);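 also: yeast exposed to compound for three hours at 30 degrees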; settings: S. cerevisiae LAP4-GFP reporter, flow cytometry fluorescence; at 33 µM (top of the series)

| Structure (SMILES) | LAP4-GFP fluorescence (kMESF) |
| --- | --- |
| CCCc1cc(=O)oc2cc(C)cc(OCC(=O)NC3CC3)c12 | 3.74 kMESF (inactive) |
| CC1=C(C)/C(=N\OS(=O)(=O)c2ccccc2)C=CC1=O | 9.73 kMESF (inactive) |
| CCc1cccc2sc(N3CCN(C(=O)c4ccc([N+](=O)[O-])o4)CC3)nc12 | -0.3 kMESF (inactive) |
| Cc1ccc(N2C(=O)C(Cl)=C(Nc3c(C)n(C)n(-c4ccccc4)c3=O)C2=O)cc1 | 2.87 kMESF (inactive) |
| CC(=O)n1cc(C(C[N+](=O)[O-])SCCN)c2ccccc21 (stereo unspecified) | 4.35 kMESF (inactive) |
| O=C(Cc1ccc(Cl)cc1)NNC(=S)NC(=O)c1cccs1 | 9.52 kMESF (inactive) |
| Cc1ccc(-c2nc(N)c3c(-c4ccc(C)cc4)nn(C(C)(C)C)c3n2)cc1 | 3.37 kMESF (inactive) |
| O=C(NC(=S)NNC(=O)c1ccc(Cl)cc1Cl)c1cccnc1 | 4.37 kMESF (inactive) |
| O=C(Nc1ccc(O)cc1)C1CCCN1S(=O)(=O)c1ccc(F)cc1 (stereo unspecified) | 3.13 kMESF (inactive) |
| Oc1c(Br)cc(Br)cc1C=Nc1ccc2[nH]ncc2c1 | 13.1 kMESF (inactive) |
| O=[N+]([O-])c1ccc(-c2cn3nc(-c4ccccc4)c(-c4ccccc4)nc3n2)cc1 | 9.37 kMESF (inactive) |
| O=C(O)c1ccccc1SC1CC(=O)N(c2ccc3c(c2)OCO3)C1=O (stereo unspecified) | 5.3 kMESF (inactive) |
| CN(C)c1ccc(/C=C/c2cc[n+](C)cc2)cc1 | 1.33 kMESF (inactive) |
| CCCCC(=O)NC(=S)NNC(=O)CCc1ccccc1 | 8.13 kMESF (inactive) |
| C[C@H]1C[C@@H](C)C(=O)[C@@H]([C@H](O)CC2CC(=O)NC(=O)C2)C1 | 7.12 kMESF (inactive) |
| COc1ccc2c(c1)c(/C=C/c1cc[n+](C)cc1)cn2C | 4.11 kMESF (inactive) |
| CCn1c(=O)c(C(C)=O)c(O)c2ccccc21 | 6.66 kMESF (inactive) |
| COc1ccc(-c2cc3cc(C(=O)O)ccn3c2C(=O)c2ccccc2)cc1 | 6.45 kMESF (inactive) |
| O=c1c2cc(Cl)ccc2nc(-c2ccc([N+](=O)[O-])cc2)n1O | 5.26 kMESF (inactive) |
| CC(c1ccccc1)N1C(=O)/C(=C/c2ccncc2)SC1=S (stereo unspecified) | 11.3 kMESF (inactive) |
| CCN(CC)c1ccc2cc(-c3nc(-c4ccc(OC)cc4)cs3)c(=O)oc2c1 | 1.57 kMESF (inactive) |
| CCCCC1OC23CCCCC2C(C#N)(C(=N)O3)C1(C#N)C#N (stereo unspecified) | 3.98 kMESF (inactive) |

| Structure (SMILES) | LAP4-GFP fluorescence (kMESF) |
| --- | --- |
| CCOc1ccccc1/C=c1\sc2ncnn2c1=O | 19 kMESF (inactive) |
| O=C1N(c2ccccc2C(F)(F)F)O[C@]1(c1ccccc1)C1CCCC1 | 3.98 kMESF (inactive) |
| CCN1/C(=C/c2ccc3cc(C)ccc3[n+]2CC)Sc2ccc3sccc3c21 | 10.7 kMESF (inactive) |
| O/C=c1\ccc2cccc3nc(C(F)(F)F)nc1c23 | 15.8 kMESF (inactive) |
| Cc1cccc(OCCN2CSC(=S)N(C)C2)c1 | 9.83 kMESF (inactive) |
| COc1ccc(C=C2C(=O)c3ccccc3C2=O)cc1O | 3.24 kMESF (inactive) |
| N#Cc1cc([N+](=O)[O-])c(-n2nnc3ccccc32)c([N+](=O)[O-])c1 | 14.5 kMESF (inactive) |
| O=C(Oc1c(Cl)cc(Cl)c2cccnc12)c1cccs1 | 13.8 kMESF (inactive) |
| COc1cc(CNC(=O)CCCCCCC(C)C)ccc1O | 3.74 kMESF (inactive) |
| Cc1ccc(/C(N)=N/OC(=O)c2ccc(F)cc2)cc1 | 5.21 kMESF (inactive) |
| CCOC(=O)c1c(C)oc2c1c(C(c1cccnc1)N1CCOCC1)c(O)c1ccccc12 (stereo unspecified) | 4.07 kMESF (inactive) |
| CCN1/C(=C/C=C/c2sc3ccccc3[n+]2CC)Sc2ccccc21 | 7.72 kMESF (inactive) |
| Cc1cc(O)c(C(=O)/C=C/c2c(F)c(F)c(F)c(F)c2F)c(=O)o1 | 7 kMESF (inactive) |
| O=C1C(Cl)=C(Nc2ccccc2O)C(=O)N1c1ccccc1 | 4.81 kMESF (inactive) |
| CC[C@]1(c2ccccc2OC)ON(c2ccccc2C(F)(F)F)C1=O | 7.52 kMESF (inactive) |
| CCCc1cc(NCc2ccccn2)n2nc(C)c(-c3ccccc3)c2n1 | 9.24 kMESF (inactive) |
| O=C1NC(=O)N(CCc2ccc(F)cc2)C(=O)/C1=C/c1cccs1 | 9.69 kMESF (inactive) |
| Cc1ccc(NC(=O)c2cc(N3C(=O)C=CC3=O)ccc2Cl)cc1C | 4.75 kMESF (inactive) |
| CCC(=O)Nc1ccc(NC(=O)c2cc3ccccc3o2)cc1 | 3.31 kMESF (inactive) |
| O=C(O)C1Sc2[nH]c(=O)sc2C2c3cc(Br)ccc3OC(=O)C12 (stereo unspecified) | 5.82 kMESF (inactive) |
| CN(C)/C=C/C(=O)c1ccc(-c2ccc(Cl)cc2Cl)o1 | 4.39 kMESF (inactive) |
| COc1cccc(/C=C2\C(=O)N(c3cccc(C)c3)C(=O)c3ccccc32)c1 | 9.02 kMESF (inactive) |

| Structure (SMILES) | LAP4-GFP fluorescence (kMESF) |
| --- | --- |
| O=C(/C=C/c1ccccc1)NC(=S)NNC(=O)Cc1cccs1 | 3.64 kMESF (inactive) |
| Cc1ccc2c(c1)c(/C=C/c1cc[n+](C)cc1)c(C)n2C | 4.11 kMESF (inactive) |
| CC(C)(C)C1C/C(=C/c2ccccn2)C(=O)/C(=C/c2ccccn2)C1 (stereo unspecified) | 4.25 kMESF (inactive) |
| O=C(Nc1ccc(NC(=O)c2cc3ccccc3o2)cc1)c1ccc2c(c1)OCCO2 | 3.21 kMESF (inactive) |
| COc1cccc(N=Cc2nc(-c3ccccc3)oc2OC(C)=O)c1 | 12.8 kMESF (inactive) |
| CCC(C)/C(C)=N/NC(=O)c1ccc(COc2ccc(Cl)c(C)c2)cc1 (stereo unspecified) | 4.7 kMESF (inactive) |
| O=C(Oc1cccc2cccnc12)c1ccc(Br)o1 | 3.74 kMESF (inactive) |
| N/C(=N\OC(=O)c1ccc(Cl)cc1Cl)c1ccccc1 | 12.4 kMESF (inactive) |
| C=C1C(O)[C@@H]2O[C@]3(CC[C@H](/C=C/C(C)[C@@H]4CC(C)=CC5(O[C@H](C[C@@](C)(O)C(=O)O)CCC5O)O4)O3)CC[C@H]2O[C@@H]1C(O)CC(C)[C@H]1OC2(CCCCO2)CCC1C (stereo partly specified) | 11.7 kMESF (inactive) |
| CCN1C(=O)/C(=C\C(=O)c2cccs2)c2cc(Br)ccc21 | 12 kMESF (inactive) |
| Cc1c(NC2=C(Cl)C(=O)N(c3ccccc3)C2=O)c(=O)n(-c2ccccc2)n1C | 6.71 kMESF (inactive) |
| O=C1Nc2ccc(Br)cc2/C1=C/C(=O)c1ccc2c(c1)OCO2 | 10.4 kMESF (inactive) |
| CCCCc1ccc(NC(=O)CC(C)=O)cc1 | 3.54 kMESF (inactive) |
| Cc1ccc(S(=O)(=O)N2CCCC2C(=O)NCc2ccncc2)cc1 (stereo unspecified) | 4.58 kMESF (inactive) |
| O=S(=O)(/N=C(\Sc1ccc(Cl)cc1)c1ccccc1)c1ccccc1 | 12.4 kMESF (inactive) |
| Cc1cccc(/C=C/C(=O)c2ccc([N+](=O)[O-])o2)c1 | 9.32 kMESF (inactive) |
| Cc1ccc(C(=O)O/N=C(\N)Cc2cccs2)c(Cl)c1 | 13.1 kMESF (inactive) |
| O=C(NC(=S)NNC(=O)[C@H]1C[C@@H]1c1ccccc1)c1cccc(F)c1 | 17.8 kMESF (inactive) |
| CC(=O)Oc1ccc(/C=c2\sc3ncnn3c2=O)cc1 | 10.1 kMESF (inactive) |
| N#C/C(=C\c1ccccn1)c1nc2ccccc2s1 | 15.1 kMESF (inactive) |
| Oc1c(CN2CCN(c3ccccc3)CC2)cc(Br)c2cccnc12 | 20.9 kMESF (inactive) |
| COc1ccc(N2C(=O)CC(Sc3ncn[nH]3)C2=O)c(OC)c1 (stereo unspecified) | 13.7 kMESF (inactive) |

| Structure (SMILES) | LAP4-GFP fluorescence (kMESF) |
| --- | --- |
| O=C1CC(c2ccccc2)=NN1c1nc(-c2ccccc2)cs1 | 3.94 kMESF (inactive) |
| C#CCOCCOCCOCCNc1nc(N2CCN(C(=O)CCCCCCCCCCNC(=O)[C@H](CCCCN)n3cc(CCCC(=O)O)nn3)CC2)nc(N2CCN(C(=O)CCCCCCCCCCNC(=O)[C@H](CCCN=C(N)N)n3cc(C[C@@H](C)CC)nn3)CC2)n1 | 5.16 kMESF (inactive) |
| CC(C)Cn1c(=O)c(C(=O)Nc2ccncc2)c(O)c2ccccc21 | 2.36 kMESF (inactive) |
| O=C(COc1c(Br)cc(Br)c2cccnc12)N1CCc2ccccc2C1 | 12.3 kMESF (inactive) |
| COc1ccc(N/N=C(\C#N)C(N)=O)cc1 | 13.2 kMESF (inactive) |
| COc1cc(N=c2ssnc2Cl)cc(OC)c1 | 11.3 kMESF (inactive) |
| O=[N+]([O-])c1cnc(Sc2ccncn2)s1 | 17.8 kMESF (inactive) |
| Cc1ccc(/C=c2\sc3nc(-c4cccs4)nn3c2=O)o1 | 7.32 kMESF (inactive) |
| COc1cc(/C=C2\CC/C(=C\c3cc(OC)c(O)c(OC)c3)C2=O)cc(OC)c1O | 2.53 kMESF (inactive) |
| O=C1C(=O)c2ccccc2-c2ccccc21 | 5.27 kMESF (inactive) |
| CCCOc1ccc(C(=O)NNC(=S)NC(=O)c2ccccc2)cc1 | 8.22 kMESF (inactive) |
| COc1cccc2cc(-c3nc4ccccc4o3)c(=O)oc12 | 3.03 kMESF (inactive) |
| Cc1ccc(S(=O)(=O)Cc2cc(F)c([N+](=O)[O-])cc2[N+](=O)[O-])cc1 | 1.59 kMESF (inactive) |
| Cc1nn(C)c(C)c1N1C(=O)c2cccc3c(Br)ccc(c23)C1=O | 5.85 kMESF (inactive) |
| COCCN1C(=O)/C(=C/c2ccc(N3CCCC3)cc2C)SC1=S | 7.02 kMESF (inactive) |
| O=C(/C=C/c1cccc(Cl)c1)c1nc2ccccc2[nH]1 | 4.71 kMESF (inactive) |
| Cc1[nH]n(-c2ncc(-c3ccccc3)s2)c(=O)c1C(c1ccc(Cl)cc1)C(C#N)C#N (stereo unspecified) | 8.02 kMESF (inactive) |
| O=C1N(c2ccccc2C(F)(F)F)O[C@@]1(c1ccccc1)C1CCCC1 | 2.93 kMESF (inactive) |
| CCN(CC(=O)Nc1cc(S(=O)(=O)N2CCOCC2)ccc1Cl)Cc1ccccc1 | 3.97 kMESF (inactive) |
| O=C(Nc1ccc(NC(=O)c2cc3ccccc3o2)cc1)c1ccco1 | 3.31 kMESF (inactive) |

Source: PubChem BioAssay AID2745 (NMMLSC, 2010)
